{
  "source": "paper PMC7224190",
  "about": "“Pharmacological inhibition of PRMT7 links arginine monomethylation to the cellular stress response” (Nature Communications, 2020)",
  "experiment_in_all_cases": "biochemical",
  "parameters_in_all_cases": "radiometric methyltransferase selectivity assay with tritiated SAM, per cent activity",
  "conditions_in_all_cases": "read-out: % of control remaining",
  "key": {"GLP": {"target": "T1, GLP (Homo sapiens, UniProt Q9H9B1)", "T1 construct": "gene EHMT1", "T1 sequence (Q9H9B1 1-1298)": "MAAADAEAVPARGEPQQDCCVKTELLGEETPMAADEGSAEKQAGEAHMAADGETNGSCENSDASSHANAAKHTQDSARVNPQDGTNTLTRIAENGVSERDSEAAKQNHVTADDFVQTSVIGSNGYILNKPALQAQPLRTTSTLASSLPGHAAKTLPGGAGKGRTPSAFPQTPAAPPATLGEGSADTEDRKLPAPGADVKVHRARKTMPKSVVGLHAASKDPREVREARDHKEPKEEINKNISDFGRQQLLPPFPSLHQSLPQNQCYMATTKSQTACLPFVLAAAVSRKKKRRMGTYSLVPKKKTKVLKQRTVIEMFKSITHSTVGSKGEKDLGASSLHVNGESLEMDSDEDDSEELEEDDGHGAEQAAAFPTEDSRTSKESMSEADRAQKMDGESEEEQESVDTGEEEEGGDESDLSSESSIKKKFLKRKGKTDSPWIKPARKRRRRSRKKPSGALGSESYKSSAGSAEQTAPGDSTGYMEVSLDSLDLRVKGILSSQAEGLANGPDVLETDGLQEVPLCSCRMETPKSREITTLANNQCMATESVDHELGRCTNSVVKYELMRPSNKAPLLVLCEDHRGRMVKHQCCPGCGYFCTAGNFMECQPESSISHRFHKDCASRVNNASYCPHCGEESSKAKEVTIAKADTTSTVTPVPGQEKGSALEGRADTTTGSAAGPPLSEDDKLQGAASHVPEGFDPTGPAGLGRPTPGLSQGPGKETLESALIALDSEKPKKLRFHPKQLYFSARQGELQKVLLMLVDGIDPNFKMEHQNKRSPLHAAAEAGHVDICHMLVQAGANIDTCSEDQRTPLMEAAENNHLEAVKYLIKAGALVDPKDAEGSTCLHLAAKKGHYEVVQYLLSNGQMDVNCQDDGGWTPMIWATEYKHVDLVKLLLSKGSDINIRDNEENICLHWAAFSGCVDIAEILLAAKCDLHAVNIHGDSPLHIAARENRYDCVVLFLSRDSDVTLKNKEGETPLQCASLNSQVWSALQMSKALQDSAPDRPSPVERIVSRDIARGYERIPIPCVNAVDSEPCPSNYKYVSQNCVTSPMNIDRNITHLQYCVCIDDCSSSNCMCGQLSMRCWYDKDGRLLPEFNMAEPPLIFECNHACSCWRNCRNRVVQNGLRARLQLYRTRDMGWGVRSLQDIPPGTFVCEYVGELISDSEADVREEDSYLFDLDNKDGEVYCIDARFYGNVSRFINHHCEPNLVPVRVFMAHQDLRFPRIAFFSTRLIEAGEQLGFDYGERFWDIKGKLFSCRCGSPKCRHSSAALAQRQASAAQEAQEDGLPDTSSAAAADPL", "how_it_was_run": "(§1)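 Radiometric methyltransferase assays with ³H-SAM and substrate near apparent Km, compound tested at 1 and 10 μM. Methyl incorporation into biotinylated substrate read by scintillation proximity after guanidine quench; no-compound = 100%, no-enzyme = 0% activity.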"}, "ASH1L": {"target": "ASH1L (Homo sapiens, UniProt Q9NR48)", "how_it_was_run": "as §1"}, "SUV39H1": {"target": "T2, SUV39H1 (Homo sapiens, UniProt O43463)", "T2 sequence (O43463 1-412)": "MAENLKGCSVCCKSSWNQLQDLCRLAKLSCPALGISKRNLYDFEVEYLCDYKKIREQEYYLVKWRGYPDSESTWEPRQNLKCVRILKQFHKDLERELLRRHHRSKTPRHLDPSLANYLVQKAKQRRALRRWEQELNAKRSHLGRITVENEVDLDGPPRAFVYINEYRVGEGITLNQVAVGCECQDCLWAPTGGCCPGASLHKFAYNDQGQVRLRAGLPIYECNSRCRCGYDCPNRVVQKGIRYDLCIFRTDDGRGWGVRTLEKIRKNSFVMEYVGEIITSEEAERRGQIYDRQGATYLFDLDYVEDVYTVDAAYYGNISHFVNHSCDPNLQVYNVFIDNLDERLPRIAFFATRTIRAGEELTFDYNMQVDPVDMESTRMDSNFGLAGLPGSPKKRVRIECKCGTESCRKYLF", "how_it_was_run": "as §1"}, "DOT1L": {"target": "DOT1L (Homo sapiens, UniProt Q8TEK3)", "sequence (Q8TEK3 whole entry)": "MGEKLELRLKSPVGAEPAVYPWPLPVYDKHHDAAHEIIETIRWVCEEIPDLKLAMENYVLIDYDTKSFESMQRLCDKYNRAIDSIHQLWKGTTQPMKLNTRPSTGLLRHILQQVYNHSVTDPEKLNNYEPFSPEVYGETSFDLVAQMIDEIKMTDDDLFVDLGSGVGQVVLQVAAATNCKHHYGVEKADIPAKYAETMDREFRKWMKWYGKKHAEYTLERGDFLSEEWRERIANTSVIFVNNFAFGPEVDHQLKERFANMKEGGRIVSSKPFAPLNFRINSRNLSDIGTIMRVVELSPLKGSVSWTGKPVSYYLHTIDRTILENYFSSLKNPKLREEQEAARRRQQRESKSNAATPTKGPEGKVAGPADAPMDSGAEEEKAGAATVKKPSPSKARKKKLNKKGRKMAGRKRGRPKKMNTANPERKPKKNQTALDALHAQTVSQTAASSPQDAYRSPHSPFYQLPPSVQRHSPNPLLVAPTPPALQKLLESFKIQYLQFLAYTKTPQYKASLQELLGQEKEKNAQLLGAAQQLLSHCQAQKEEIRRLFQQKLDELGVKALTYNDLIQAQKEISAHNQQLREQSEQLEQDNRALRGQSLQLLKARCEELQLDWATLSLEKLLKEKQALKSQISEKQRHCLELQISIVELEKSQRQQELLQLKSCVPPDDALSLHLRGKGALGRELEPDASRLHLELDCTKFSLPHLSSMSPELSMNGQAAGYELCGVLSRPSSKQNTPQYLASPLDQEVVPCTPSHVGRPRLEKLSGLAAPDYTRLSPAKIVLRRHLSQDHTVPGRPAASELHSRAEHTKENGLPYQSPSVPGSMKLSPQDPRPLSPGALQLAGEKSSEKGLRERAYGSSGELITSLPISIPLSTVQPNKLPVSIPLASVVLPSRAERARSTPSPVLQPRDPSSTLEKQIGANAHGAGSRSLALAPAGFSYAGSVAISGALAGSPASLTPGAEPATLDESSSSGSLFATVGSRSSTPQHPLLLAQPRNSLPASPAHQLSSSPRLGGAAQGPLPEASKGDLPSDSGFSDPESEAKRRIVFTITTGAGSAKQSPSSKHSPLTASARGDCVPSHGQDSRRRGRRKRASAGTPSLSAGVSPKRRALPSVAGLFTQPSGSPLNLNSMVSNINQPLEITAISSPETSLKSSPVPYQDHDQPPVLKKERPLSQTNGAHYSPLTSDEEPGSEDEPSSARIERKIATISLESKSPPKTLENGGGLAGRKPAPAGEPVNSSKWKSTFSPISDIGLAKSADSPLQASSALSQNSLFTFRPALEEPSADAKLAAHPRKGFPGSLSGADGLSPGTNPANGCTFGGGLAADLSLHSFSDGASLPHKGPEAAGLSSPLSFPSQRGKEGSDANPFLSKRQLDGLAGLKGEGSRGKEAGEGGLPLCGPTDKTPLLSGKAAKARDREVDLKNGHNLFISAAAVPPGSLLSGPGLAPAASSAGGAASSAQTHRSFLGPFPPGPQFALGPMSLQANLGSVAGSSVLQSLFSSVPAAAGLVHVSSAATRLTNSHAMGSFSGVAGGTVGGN", "how_it_was_run": "as §1"}, "SMYD2": {"target": "SMYD2 (Homo sapiens, UniProt Q9NRG4)", "sequence (Q9NRG4 whole entry)": "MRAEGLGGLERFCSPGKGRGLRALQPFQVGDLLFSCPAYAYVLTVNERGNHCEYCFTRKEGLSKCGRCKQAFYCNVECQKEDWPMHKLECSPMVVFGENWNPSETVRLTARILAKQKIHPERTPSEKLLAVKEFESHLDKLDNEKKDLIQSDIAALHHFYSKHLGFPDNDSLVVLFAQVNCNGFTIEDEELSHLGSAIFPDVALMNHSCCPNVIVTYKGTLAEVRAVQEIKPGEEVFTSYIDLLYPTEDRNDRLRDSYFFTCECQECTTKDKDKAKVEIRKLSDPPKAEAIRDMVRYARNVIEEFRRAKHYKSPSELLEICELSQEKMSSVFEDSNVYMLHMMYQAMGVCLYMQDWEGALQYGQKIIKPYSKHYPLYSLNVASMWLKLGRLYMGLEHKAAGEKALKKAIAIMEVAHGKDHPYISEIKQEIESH", "how_it_was_run": "as §1"}, "PRMT1": {"target": "PRMT1 (Homo sapiens, UniProt Q99873)", "sequence (Q99873 whole entry)": "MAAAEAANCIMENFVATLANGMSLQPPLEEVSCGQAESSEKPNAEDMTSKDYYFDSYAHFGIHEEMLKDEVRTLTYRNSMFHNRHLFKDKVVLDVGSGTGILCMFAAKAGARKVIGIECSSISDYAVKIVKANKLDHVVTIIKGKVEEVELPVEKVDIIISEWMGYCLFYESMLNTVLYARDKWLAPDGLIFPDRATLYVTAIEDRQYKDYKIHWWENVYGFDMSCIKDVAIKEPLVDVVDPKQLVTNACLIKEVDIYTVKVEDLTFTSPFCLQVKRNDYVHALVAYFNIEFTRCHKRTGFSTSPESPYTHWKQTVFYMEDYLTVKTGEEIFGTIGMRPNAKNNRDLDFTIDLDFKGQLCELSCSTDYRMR", "how_it_was_run": "as §1"}},
  "data": [
    {"smiles": "Nc1ncnc2c1ncn2[C@@H]1O[C@H](CSCCCCNCc2cccc(-c3ccc(Cl)cc3)c2)[C@@H](O)[C@H]1O", "note": "[SGC8158]", "values": [
      {"measurement": "remaining activity at 1 µM", "setting": "GLP", "value": 99, "unit": "%"},
      {"measurement": "remaining activity at 10 µM", "setting": "GLP", "value": 95, "unit": "%"},
      {"measurement": "remaining activity at 1 µM", "setting": "ASH1L", "value": 96, "unit": "%"},
      {"measurement": "remaining activity at 10 µM", "setting": "ASH1L", "value": 97, "unit": "%"},
      {"measurement": "remaining activity at 1 µM", "setting": "SUV39H1", "value": 94, "unit": "%"},
      {"measurement": "remaining activity at 10 µM", "setting": "SUV39H1", "value": 90, "unit": "%"},
      {"measurement": "remaining activity at 1 µM", "setting": "DOT1L", "value": 58, "unit": "%"},
      {"measurement": "remaining activity at 10 µM", "setting": "DOT1L", "value": 13, "unit": "%"},
      {"measurement": "remaining activity at 1 µM", "setting": "SMYD2", "value": 101, "unit": "%"},
      {"measurement": "remaining activity at 10 µM", "setting": "SMYD2", "value": 84, "unit": "%"},
      {"measurement": "remaining activity at 1 µM", "setting": "PRMT1", "value": 104, "unit": "%"},
      {"measurement": "remaining activity at 10 µM", "setting": "PRMT1", "value": 67, "unit": "%"}
    ]},
    {"smiles": "CC1(C)O[C@@H]2[C@H](O1)[C@@H](CSCCCCNCc1cccc(-c3ccc(Cl)cc3)c1)O[C@H]2n1cnc2c(N)ncnc21", "note": "[SGC8158N]", "values": [
      {"measurement": "remaining activity at 1 µM", "setting": "GLP", "value": 95, "unit": "%"},
      {"measurement": "remaining activity at 10 µM", "setting": "GLP", "value": 90, "unit": "%"},
      {"measurement": "remaining activity at 1 µM", "setting": "ASH1L", "value": 99, "unit": "%"},
      {"measurement": "remaining activity at 10 µM", "setting": "ASH1L", "value": 102, "unit": "%"},
      {"measurement": "remaining activity at 1 µM", "setting": "SUV39H1", "value": 98, "unit": "%"},
      {"measurement": "remaining activity at 10 µM", "setting": "SUV39H1", "value": 78, "unit": "%"},
      {"measurement": "remaining activity at 1 µM", "setting": "DOT1L", "value": 97, "unit": "%"},
      {"measurement": "remaining activity at 10 µM", "setting": "DOT1L", "value": 95, "unit": "%"},
      {"measurement": "remaining activity at 1 µM", "setting": "SMYD2", "value": 105, "unit": "%"},
      {"measurement": "remaining activity at 10 µM", "setting": "SMYD2", "value": 104, "unit": "%"},
      {"measurement": "remaining activity at 1 µM", "setting": "PRMT1", "value": 94, "unit": "%"},
      {"measurement": "remaining activity at 10 µM", "setting": "PRMT1", "value": 91, "unit": "%"}
    ]}
  ]
}
